Data set [1] relates to SVMP activity of E. ocellatus, E. carinatus, B. asper and B. arietans venoms. In words: In vitro kinetic fluorogenic SVMP assay (Study 2). The data set is classed as biochemical. The source says:
FIG. 10. […] (A) SVMP activities of the five viper venoms quantified by fluorogenic assay. The data presented represent mean measurements and SEMs of area under the curves of fluorescent arbitrary units taken from three independent experimental runs. EOC, E. ocellatus; ECAR, E. carinatus; BAS, Bothrops asper, BAR, Bitis arietans; DRUS, Daboia russelii. (B) The effectiveness of metal chelators and peptidomimetic hydroxamate inhibitors at inhibiting the SVMP activity of the various viper venoms. Drug concentrations from 150 μM to 150 nM (highest to lowest dose tested) are presented. The data is expressed as percentage of the venom-only sample (100%, top dashed line). The negative control is presented as an interval (bottom dashed lines) and represents the values recorded in the PBS-only samples (expressed as percentage of venom activity), where the highest and the lowest values in each set of independent experiments are depicted. […] All data represent triplicate independent repeats with SEMs, where each technical repeat represents the mean of n≥2 technical replicates.
We used an in vitro kinetic fluorogenic assay^28 to assess the SVMP bioactivity of each venom and its inhibition by varying concentrations of the four SVMP-inhibitors.
The SVMP assay measuring metalloproteinase activity and the plasma assay measuring coagulation in the presence or absence of venoms and inhibitors were performed as previously described^28. The SVMP assay kinetically measured cleavage of a quenched fluorogenic substrate (ES010, R&D Biosystems) by venom in the presence or absence of inhibitors.
Briefly, 10 μl of the substrate (supplied as a 6.2 mM stock) was used per 5 ml reaction buffer (150 mM NaCl, 50 mM Tris-CI pH 7.5). Reactions consisted of 10 μl of venom±inhibitors in PBS and 90 μl of substrate. Venoms were used at 1 μg/reaction and final inhibitor concentrations ranged from 150 μM to 150 nM. Samples were preincubated for 30 min at 37° C. and pipetted in triplicate into 384-well plates (Greiner). Thereafter, data was collected on an Omega FLUOstar (BMG Labtech) instrument at an excitation wavelength of 320 nm and emission wavelength of 405 nm at 25° C. for 1 h. The areas under the curve (AUCs) in the 0-40 min interval were calculated for each sample using MARS data analysis software v3.31 (BMG Labtech); this time point was chosen as the time where all fluorescence curves had reached a plateau (maximum fluorescence). For comparing venom-only samples, the means of at least three independent experimental runs for each condition, expressed as AUCs (n≥3), were plotted at each inhibitor concentration with standard error of the mean (SEM). To determine inhibitor efficacy, the AUCs for each of the samples that consisted of venom+inhibitors were transformed and expressed as percentages of the venom-only sample (where the venom was 100%). The negative control (PBS only) was also expressed relative to the venom, and the variation in background was presented as an interval delineated by the lowest and highest values in the PBS-only samples across concentrations and inhibitors for a specific venom. […] However, only the latter two concentrations were sufficiently depleted of DMSO for viable use in the assay.

Data set [2] has as its system procoagulant activities of viper venoms (E. ocellatus, E. carinatus, B. asper, D. russelii). The data set can be described thus: Plasma clotting assay, neutralization of procoagulant venom activity. The data set is classed as biochemical. The conditions noted are these: range across all venoms, 100 ng venom, bovine plasma; read-out: IC50, inhibition of procoagulant activity. The source says:
FIG. 11. SVMP-inhibitors neutralize the in vitro procoagulant activities of several geographically distinct viper venoms. […] The data presented represents the maximum clotting velocity, calculated as the maximum of the first derivative of each clotting curve, from triplicate independent repeat experiments with SEMs, where each technical repeat represents the mean of n≥2 technical replicates. EOC, E. ocellatus; ECAR, E. carinatus; BAS, Bothrops asper, BAR, Bitis arietans; DRUS, Daboia russelii. (B) Neutralization of procoagulant venom activity by four SVMP-inhibitors across four drug concentrations (150 μM to 150 nM). The data is expressed as the maximum clotting velocity at each dose. The negative (PBS) and positive (venom-only) controls are presented as intervals (bottom dashed and top dashed lines, respectively), with the latter representing the mean maximum clotting velocity in these samples±SEM. The data represent triplicate independent repeats with SEMs, where each technical repeat represents the mean of n≥2 technical replicates. Note the different y-axis scales.
Since SVMPs are key toxins associated with causing coagulopathy, we next investigated whether the same peptidomimetic and metal chelating inhibitors could also neutralize the procoagulant bioactivities of viper venoms. To do so, we used a validated kinetic absorbance-based assay monitoring plasma clotting^35 in the presence or absence of venoms and inhibitors (FIG. 11).
(§1) We used a previously developed plasma clotting assay^35 to measure venom-induced coagulation. Briefly, 100 ng of each venom was incubated at 37° C. for 30 min in the presence or absence of inhibitors (150 μM to 150 nM final concentrations). The final reaction consisted of 10 μl venom±inhibitors in PBS, 20 μl 20 mM CaCl2), and 20 μl citrated bovine plasma (VWR). The samples were pipetted in triplicate into 384-well plates, and absorbance monitored at 595 nm for 2 h at 25° C. on an Omega FLUOstar instrument. We calculated the maximum clotting velocity of each of the curves as per clot waveform analysis^67, by calculating the maximum of the first derivative. The means of at least three independent experimental runs for each condition were plotted at each inhibitor concentration with SEMs.

A further data set has as its system Echis ocellatus venom. The data set can be described thus: Murine preincubation (co-incubation) model of venom lethality, intravenous, with TAT ELISA. The data set is classed as in vivo, CD-1 mice. The conditions noted are these: 45 μg venom (2.5×LD50) preincubated 30 min at 37° C. with 60 μg of each drug, i.v., 6 h monitoring, n=5. The protocol:
The intravenous median lethal dose (venom LD50) for E. ocellatus (Nigeria) of 17.85 μg per mouse was previously determined. Mice were challenged with 45 μg of E. ocellatus venom (2.5×the intravenous LD50 dose) in a refined version of the World Health Organization-recommended antivenom efficacy experiments. Groups of five male 18-22 g CD-1 mice (Charles River, UK) received experimental doses that consisted of either (a) venom only (2.5×LD50 dose), (b) venom and drug (60 μg) or (c) drug only. All experimental doses were prepared to a volume of 200 μl in PBS and incubated at 37° C. for 30 mins prior to their intravenous injection via the tail vein. Animals were monitored for 6 hours and euthanized upon observation of humane endpoints (seizure, pulmonary distress, paralysis, hemorrhage). Deaths, time of death, and survivors were recorded; where “deaths/time of death” represents the implementation of euthanasia based on the defined humane endpoints.
The same murine preincubation model was used to assess the efficacy of distinct toxin family inhibiting drugs in comparison with a drug combination. […] All experimental doses were prepared to a volume of 200 μl in PBS and incubated at 37° C. for 30 min prior to their intravenous injection via the tail vein. Animals were monitored for 6 h, and euthanized via rising concentrations of CO2 upon observation of previously defined humane end points that are predicators of lethality (e.g., seizure, pulmonary distress, paralysis, hemorrhage). Deaths, time of death, and survivors were recorded; where death/time of death represents the implementation of euthanasia based on defined humane end points.
Strong drug hits, those defined as inhibiting >80% of the venom activity in the previously described in vitro metalloproteinase assay (FIG. 1), were next progressed into murine preclinical efficacy studies, to assess their ability to prevent venom-induced lethality in vivo. We used an established in vivo model of envenoming to test the efficacy of the seven snake venom metalloproteinase toxin inhibitors identified. This model consisted of the preincubation of the test drug with venom, followed by intravenous injection of the mixture into groups of five male CD-1 mice (18-20 g) via the tail vein followed by 6 hour monitoring, and is based on principles laid out in the gold standard method of preclinical efficacy recommended by the World Health Organization.
We used an established in vivo model of envenoming^41,42 to test the efficacy of small molecule toxin inhibitors. […]
(An ELISA detects its analyte on a solid surface through an enzyme-linked reagent.)

The subject of data set [3] is SVSP activity of viper venoms. In words: Chromogenic SVSP (serine protease) assay. Format: biochemical. The text has this:
FIG. 13. Nafamostat inhibits the in vitro serine protease activities of several geographically distinct viper venoms. (A) The serine protease (SVSP) activity of five viper venoms expressed as the rate (ΔAbs/time/μg venom) of substrate consumption determined by kinetic chromogenic assay. The data represents triplicate independent repeats with SEMs, where each technical repeat represents the mean of n≥2 technical replicates. EOC, E. ocellatus; ECAR, E. carinatus; BAS, Bothrops asper, BAR, Bitis arietans; DRUS, Daboia russelii. (B) Neutralization of SVSP venom activity by the serine protease-inhibitor nafamostat. The data is expressed as rates (ΔAbs/time/μg venom) and represents triplicate independent repeats with SEMs, where each technical repeat represents the mean of n≥2 technical replicates. […] Note the different y-axis scales.
SVSP activity was measured using a chromogenic substrate (S-2288, Cambridge Bioscience). […] The samples were pipetted in triplicate into 384-well plates (Greiner) and absorbance at 405 nm was monitored kinetically for ˜30 min on an Omega FLUOstar instrument (BMG Labtech). Given the linearity of the resulting slopes, negative control readings (PBS) were subtracted from each reading and the rate of substrate consumption calculated by measuring the slope between 0 and 5 mins. […]

The test system of another data set is normal plasma clotting. The data set can be described thus: Normal plasma clotting in the absence of venom. The data set is classed as biochemical, bovine. Conditions: 150 μM, no venom. How it is done:
FIG. 14. The serine protease-inhibitor nafamostat inhibits normal plasma clotting. Comparison of normal clotting (i.e. in the absence of venom and inhibitors via recalcification) and clotting in the presence of the generic serine protease-inhibitor nafamostat. […] The anticoagulant effect of this drug is expressed as a percentage of the plasma-only activity.
as §1

The conditions of data set [4]: in vivo; cited from earlier work.

The values that follow come from US12285408B2, “Methods and compositions for the treatment of snake bite” (priority 2021, dated 2025).

By half-life is commonly meant the time in which the quantity being followed falls by half.

With `OCC(S)CS` (centres unmarked) [dimercaprol, 2,3-dimercapto-1-propanol], the “lowest concentration effective / required to fully inhibit SVMP activities” value in data set [1] (concentrations tested 150 μM to 150 nM) is 1.5 µM. Also, the IC50 in data set [1] (range across venoms, 1 μg venom/reaction, read-out: IC50s, inhibition of SVMP activity) lay within 20 to 400 nM; in data set [2], 150 to 3700 nM.

As for `N=C(N)c1ccc2cc(OC(=O)c3ccc(N=C(N)N)cc3)ccc2c1` [nafamostat], in the data set with Echis ocellatus venom, the “survival / protection against venom-induced lethality” value is recorded as “no evident efficacy”. Besides, the “inhibition of SVSP activity” value in data set [3] (highest doses 150 and 15 μM, irrespective of venom) is listed as “completely inhibiting SVSP activity”. Moreover, the IC50 in data set [3] (range across venoms, 1 μg venom/reaction, read-out: IC50s, inhibition of SVSP activity) is 120 to 1070 nM. Moreover, the “effect on normal plasma clotting” value in the data set on normal plasma clotting is listed as “dramatically inhibits plasma coagulation”. Moreover, in data set [4], the half-life is given as around 8 min.
